Source: patent US7410986B2, “4-6-diphenyl pyridine derivatives as antiinflammatory agents” (Bayer Aktiengesellschaft, priority 2000, dated 2008)
Where a name gives a salt, the structure may show the parent alone.

Key:
human IKK-β = target: T1, human IKK-β (Homo sapiens, UniProt O14920); test: IKK-β kinase inhibitory assay; type: biochemical; settings: compounds of about 40 to 90% purity, read-out: In vitro activity grade (invitro, IC50)
T1 construct: A cDNA fragment encoding human IKK-β open reading frame was generated by PCR; His; made in house; host or cells: Sf21 insect cells (baculovirus); the GST-IκBα substrate was made in E. coli
T1 sequence (O14920 1-756): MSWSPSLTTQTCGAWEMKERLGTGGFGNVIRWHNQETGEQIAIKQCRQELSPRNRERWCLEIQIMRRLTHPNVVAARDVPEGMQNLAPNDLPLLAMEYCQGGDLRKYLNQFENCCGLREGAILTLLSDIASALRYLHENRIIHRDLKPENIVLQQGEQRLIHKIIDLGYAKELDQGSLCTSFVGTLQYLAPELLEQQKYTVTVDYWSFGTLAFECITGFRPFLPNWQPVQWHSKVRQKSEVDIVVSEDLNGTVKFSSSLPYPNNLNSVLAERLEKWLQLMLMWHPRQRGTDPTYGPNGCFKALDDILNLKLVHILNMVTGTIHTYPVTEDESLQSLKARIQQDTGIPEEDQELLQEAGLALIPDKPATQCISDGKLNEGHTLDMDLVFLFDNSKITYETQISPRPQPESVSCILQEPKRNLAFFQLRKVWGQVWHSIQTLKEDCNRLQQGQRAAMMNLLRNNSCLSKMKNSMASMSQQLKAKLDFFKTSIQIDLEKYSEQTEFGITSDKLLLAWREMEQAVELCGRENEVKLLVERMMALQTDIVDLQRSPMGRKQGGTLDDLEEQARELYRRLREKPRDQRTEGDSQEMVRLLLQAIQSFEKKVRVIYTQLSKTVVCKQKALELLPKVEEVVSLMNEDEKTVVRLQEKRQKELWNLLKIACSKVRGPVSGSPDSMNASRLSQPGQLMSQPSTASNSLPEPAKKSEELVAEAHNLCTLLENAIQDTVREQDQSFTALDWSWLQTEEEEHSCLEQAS
In short: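 His-tagged human IKK-β from baculovirus-infected Sf21 cells (final 0.6 μg/ml) with biotinylated GST-IκBα (1-54) (final 0.2 μM) in Tris-HCl pH 7.6/MgCl2 buffer with 2.5% DMSO compound. Reaction started with ATP plus [γ-^33P] ATP, 2 hrs at room temperature; EDTA-stopped, substrate captured on streptavidin plates and bound radioactivity counted by scintillation.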

[1] = test system: RANTES production in response to TNF-α from A549 cells; test: RANTES production in response to TNF-α from A549 cells; type: cell-based, human; settings: Homo sapiens, A549, 24 h, 100 ng/ml TNF-α, compounds of about 40 to 90% purity, read-out: Cellular activity grade (A549, IC50)

Compound	IC50 (human IKK-β)	IC50 [1]
N#Cc1c(-c2cccc(NC(=O)CCN3CCCC4CCCCC43)c2)cc(-c2ccccc2O)nc1N (stereo not drawn) [Example 4-15]	500 to 2000 nM	1000 to 10000 nM
COc1cccc(O)c1-c1cc(-c2cccc(NC(=O)C(O)CCC(=O)O)c2)c(C#N)c(N)n1 (stereo not drawn) [Example 1-13]	500 to 2000 nM	> 10000 nM
N#Cc1c(-c2ccc(N3CCC(NC(=O)C(F)(F)F)C3)c(NC(=O)CNCC3CC3)c2)cc(-c2ccccc2O)nc1N (stereo not drawn) [Example 4-38]	< 500 nM	1000 to 10000 nM
N#Cc1c(-c2cccc(O)c2)cc(-c2ccccc2O)nc1N [Example 1-23]	< 500 nM	1000 to 10000 nM
N#Cc1c(-c2cccc(NC(=O)C(O)CCC(=O)O)c2)cc(-c2ccccc2O)nc1N (stereo not drawn) [Example 1-2, Sodium 5-({3-[2-amino-3-cyano-6-(2-hydroxyphenyl)-4-pyridinyl]phenyl}amino)-4-hydroxy-5-oxopentanoate]	500 to 2000 nM	> 10000 nM
CN1CCN(CC(=O)Nc2cccc(-c3cc(-c4ccccc4O)nc(N)c3C#N)c2)CC1 [Example 4-02]	500 to 2000 nM	1000 to 10000 nM
N#Cc1c(-c2cccc(N)c2)cc(-c2ccccc2O)nc1N [Example 1-07]	2000 to 10000 nM	> 10000 nM
N#Cc1c(-c2ccc(N3CCOCC3)c(NC(=O)CCN)c2)cc(-c2ccccc2O)nc1N [Example 3-06]	500 to 2000 nM	1000 to 10000 nM
N#Cc1c(-c2cccc(NC(=O)NCCN3CCCCC3)c2)cc(-c2ccccc2O)nc1N [Example 2-09]	500 to 2000 nM	1000 to 10000 nM
CC(C)C[C@H](N)C(=O)Nc1ccc(F)c(-c2cc(-c3ccccc3O)nc(N)c2C#N)c1 [Example 2-11]	500 to 2000 nM	1000 to 10000 nM
COc1cccc(O)c1-c1cc(-c2cccc(NC(=O)C3CCC(=O)O3)c2)c(C#N)c(N)n1 (stereo not drawn) [Example 1-12]	500 to 2000 nM	> 10000 nM
N#Cc1c(-c2cccc(C(=O)NCCN3CCCCC3)c2)cc(-c2ccccc2O)nc1N [Example 6-1, 3-[2-amino-3-cyano-6-(2-hydroxyphenyl)-4-pyridinyl]-N-[2-(1-piperidinyl)ethyl]benzamide trifluoroacetate]	2000 to 10000 nM	1000 to 10000 nM
